Results on five compounds are retold here after patent publication US5204338A, “Oxalylamino acid derivatives and their use as medicaments for inhibiting proline hydroxylase” (Hoechst Aktiengesellschaft, priority 1990, dated 1993).

One test deals with calvaria culture. Put plainly: calvaria culture: reduction of the hydroxyproline/proline quotients in metabolic labeling with ^14 C-proline. It is filed as cell-based. The following applies: 50% reduction of the hydroxyproline/proline quotients in metabolic labeling with ^14 C-proline; esters. The text has this:
The inhibitory activity can also be determined in cell or tissue culture. To do this, fibroblasts or other collagen-producing cells or calvaria or other collagen-producing organs can be employed. The inhibitory activity of substances according to the invention in calvaria culture is collated in Table 3. The concentration is indicated which leads to a 50% reduction of the hydroxyproline/proline quotients in metabolic labeling with ^14 C-proline (IC50).

The target of a further test is prolyl hydroxylase (Homo sapiens, UniProt P13674). Nature of the test: enzyme test: hydroxylation of underhydroxylated collagen with prolyl hydroxylase in the presence of iron(II) ions, α-keto glutarate and ascorbate. It is filed as biochemical. The note with it: concentration which leads to an 80% inhibition of enzyme activity (the value is indicated as Ki); salts.
Test [1] has as its system Clq biosynthesis of macrophages. The note with it: W. Muller et al., FEBS Lett. 90, 218 (1978); cited from earlier work.

pIC50, pKi: −log10 of the molar value. Structures can show the parent of a compound that is named as a salt.

Sequence of prolyl hydroxylase (P13674 18-534): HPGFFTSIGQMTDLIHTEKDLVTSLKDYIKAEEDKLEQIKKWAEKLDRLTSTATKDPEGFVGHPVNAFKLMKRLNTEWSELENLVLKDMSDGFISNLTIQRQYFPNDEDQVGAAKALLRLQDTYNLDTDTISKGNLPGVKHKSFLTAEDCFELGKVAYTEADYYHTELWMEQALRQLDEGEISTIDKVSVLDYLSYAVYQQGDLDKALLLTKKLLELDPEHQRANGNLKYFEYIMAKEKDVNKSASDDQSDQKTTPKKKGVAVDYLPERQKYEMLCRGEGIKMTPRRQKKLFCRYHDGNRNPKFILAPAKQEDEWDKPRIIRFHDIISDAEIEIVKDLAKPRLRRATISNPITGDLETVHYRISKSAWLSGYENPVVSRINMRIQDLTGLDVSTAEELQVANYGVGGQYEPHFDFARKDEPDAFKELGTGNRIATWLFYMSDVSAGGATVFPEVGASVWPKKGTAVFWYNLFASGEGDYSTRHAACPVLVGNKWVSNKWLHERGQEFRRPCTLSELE
Sequence of prolyl hydroxylase (P07237 18-508 partner): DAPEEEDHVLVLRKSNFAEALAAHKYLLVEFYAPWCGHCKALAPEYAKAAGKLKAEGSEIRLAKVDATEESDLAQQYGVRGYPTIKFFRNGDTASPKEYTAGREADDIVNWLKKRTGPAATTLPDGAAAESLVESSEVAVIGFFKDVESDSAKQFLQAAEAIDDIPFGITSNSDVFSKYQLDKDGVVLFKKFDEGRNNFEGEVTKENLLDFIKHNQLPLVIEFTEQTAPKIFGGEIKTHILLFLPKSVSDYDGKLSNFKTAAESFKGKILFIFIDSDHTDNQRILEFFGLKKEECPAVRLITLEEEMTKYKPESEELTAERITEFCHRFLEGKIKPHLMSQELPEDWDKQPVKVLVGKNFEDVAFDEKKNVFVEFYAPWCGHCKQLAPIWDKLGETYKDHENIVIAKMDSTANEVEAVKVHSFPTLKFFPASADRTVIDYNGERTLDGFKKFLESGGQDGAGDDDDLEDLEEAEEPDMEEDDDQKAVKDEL

With `COC(=O)C(=O)N[C@@H](C)C(=O)OC` [Example 1, (N-Oxalyl)-L-alanine dimethyl ester], the negative-log IC50 (pIC50) (commonly the IC50 on a negative log10 scale, so that one unit is a factor of ten) in the test on calvaria culture was 3.46.

In the case of `COC(=O)CNC(=O)C(=O)OC` [Example 3, (N-Oxalyl)-L-glycine dimethyl ester], the negative-log IC50 (pIC50) in the test on calvaria culture is 5.70. Regarding `O=C(O)CNC(=O)C(=O)O` [Example 10, (N-Oxalyl)-L-glycine dipotassium salt], the pKi (in general, the negative decadic logarithm of the Ki, by convention in mol/L) at prolyl hydroxylase is 5.00. The same measure, in the same setting: under `C[C@H](NC(=O)C(=O)O)C(=O)O` [dipotassium salt] stands 4.40. Turning to `c1ccc(-c2ccccn2)nc1` [α, α-dipyridyl], the “inhibition of Clq biosynthesis” value in test [1] is reported as “inhibition of Clq biosynthesis of macrophages”.
